Experimental data: PubChem BioAssay AID1259407 (Chemical Carcinogenesis Research Information System (CCRIS), 2018)
“Also recorded” adds a separate entry of the source. Active and inactive are the calls of the source. How the calls were made is not given here.

System: CCRIS mutagenicity, Ames/micronucleus/aberration tests
Assay: CCRIS mutagenicity studies
[1] = Test System: AMES SALMONELLA TYPHIMURIUM, Strain/Indicator: TA98, Metabolic Activation: NONE, Method: PREINCUBATION
[2] = Test System: AMES SALMONELLA TYPHIMURIUM, Strain/Indicator: TA100, Metabolic Activation: NONE, Method: PREINCUBATION
[3] = Test System: AMES SALMONELLA TYPHIMURIUM, Strain/Indicator: TA100, Metabolic Activation: NONE, Method: STANDARD PLATE
[4] = Test System: AMES SALMONELLA TYPHIMURIUM, Strain/Indicator: TA100, Metabolic Activation: RAT, LIVER, S-9, AROCLOR 1254, Method: STANDARD PLATE
[5] = Test System: AMES SALMONELLA TYPHIMURIUM, Strain/Indicator: TA1535, Metabolic Activation: NONE, Method: PREINCUBATION
[6] = Test System: AMES SALMONELLA TYPHIMURIUM, Strain/Indicator: TA104, Metabolic Activation: NONE, Method: PREINCUBATION
[7] = Test System: AMES SALMONELLA TYPHIMURIUM, Strain/Indicator: TA102, Metabolic Activation: NONE, Method: PREINCUBATION
[8] = Test System: AMES SALMONELLA TYPHIMURIUM, Strain/Indicator: TA100, Metabolic Activation: RAT, LIVER, S-9, AROCLOR, Method: PREINCUBATION
[9] = Test System: AMES SALMONELLA TYPHIMURIUM, Strain/Indicator: TA98, Metabolic Activation: NONE, Method: STANDARD PLATE

## Cc1ccc2cc3c(ccc4ccccc43)c3c2c1CC3OS(=O)(=O)O (configuration not stated)
[1]
  mutagenic call: active; positive
[2]
  mutagenic call: active; positive

## Cn1cnc(-c2ccccc2)c1N=O
[3]
  mutagenic call: active; positive

## [Cl][Cu][Cl]
Test System: E. COLI, Strain/Indicator: WP2 UVRA, Metabolic Activation: NONE, Method: SPOT TEST
  mutagenic call: active; positive
Test System: E. COLI, Strain/Indicator: WP2 UVRA, Metabolic Activation: NONE, Method: STANDARD PLATE
  mutagenic call: active; positive

## CNC(C)Cc1ccc2c(c1)OCO2 (configuration not stated)
End Point: In vitro micronucleus, Test System: Chinese hamster lung fibroblast, Metabolic Activation: Hamster, Liver, S-9, Phenobarbital sodium and 5,6-benzoflavone
  mutagenic call: inactive; negative. n-nitroso-3,4-methylenedioxymethamphetamine (500-900 ug/ml), expected
End Point: In vitro micronucleus, Test System: Chinese hamster lung fibroblast, Metabolic Activation: None
  mutagenic call: inactive; negative. n-nitroso-3,4-methylenedioxymethamphetamine (200-600 ug/ml), expected; also recorded: inactive; negative. n-nitroso-3,4-methylenedioxymethamphetamine (50-300 ug/ml), expected t
End Point: In vitro micronucleus, Test System: Chinese hamster lung fibroblast, Metabolic Activation: Rat, Liver, S-9, Phenobarbital sodium and 5,6-benzoflavone
  mutagenic call: inactive; negative. n-nitroso-3,4-methylenedioxymethamphetamine (500-900 ug/ml), expected

## COc1cc2c(c3oc(=O)c4c(c13)CC[C@H]4O)[C@@H]1C=CO[C@@H]1O2
[3]
  mutagenic call: inactive; negative
[4]
  mutagenic call: active; positive

## O=[N+]([O-])c1ccccc1O
Test System: AMES SALMONELLA TYPHIMURIUM, Strain/Indicator: TA98, Metabolic Activation: HAMSTER, LIVER, S-9, AROCLOR 1254, FLAVIN MONONUCLEOTIDE, Method: PREINCUBATION
  mutagenic call: inactive; negative
[1]
  mutagenic call: inactive; negative
Test System: AMES SALMONELLA TYPHIMURIUM, Strain/Indicator: TA98, Metabolic Activation: RAT, LIVER, S-9, KANECHLOR 500, Method: PREINCUBATION
  mutagenic call: inactive; negative
Test System: AMES SALMONELLA TYPHIMURIUM, Strain/Indicator: TA98, Method: PREINCUBATION
  mutagenic call: inactive; negative
Test System: AMES SALMONELLA TYPHIMURIUM, Strain/Indicator: TA100, Metabolic Activation: HAMSTER, LIVER, S-9, AROCLOR 1254, FLAVIN MONONUCLEOTIDE, Method: PREINCUBATION
  mutagenic call: inactive; negative
[2]
  mutagenic call: inactive; negative
Test System: AMES SALMONELLA TYPHIMURIUM, Strain/Indicator: TA100, Metabolic Activation: RAT, LIVER, S-9, KANECHLOR 500, Method: PREINCUBATION
  mutagenic call: inactive; negative
Test System: AMES SALMONELLA TYPHIMURIUM, Strain/Indicator: TA100, Method: PREINCUBATION
  mutagenic call: inactive; negative
[5]
  mutagenic call: inactive; negative
Test System: AMES SALMONELLA TYPHIMURIUM, Strain/Indicator: TA1535, Method: PREINCUBATION
  mutagenic call: inactive; negative
Test System: AMES SALMONELLA TYPHIMURIUM, Strain/Indicator: TA1537, Metabolic Activation: NONE, Method: PREINCUBATION
  mutagenic call: inactive; negative
Test System: AMES SALMONELLA TYPHIMURIUM, Strain/Indicator: TA1537, Method: PREINCUBATION
  mutagenic call: inactive; negative
Test System: AMES SALMONELLA TYPHIMURIUM, Strain/Indicator: TA1538, Metabolic Activation: NONE, Method: PREINCUBATION
  mutagenic call: inactive; negative
Test System: AMES SALMONELLA TYPHIMURIUM, Strain/Indicator: TA1538, Method: PREINCUBATION
  mutagenic call: inactive; negative

## O=C(O)/C(Cl)=C(\CCl)C(Cl)Cl
[1]
  mutagenic call: active; positive
[2]
  mutagenic call: active; positive
[6]
  mutagenic call: active; positive

## Cc1c2ccccc2cc2c3c(ccc12)C(=O)C(=O)C=C3
Test System: AMES SALMONELLA TYPHIMURIUM, Strain/Indicator: TA97A, Metabolic Activation: NONE, Method: PREINCUBATION
  mutagenic call: active; positive
[1]
  mutagenic call: inactive; negative
[2]
  mutagenic call: inactive; negative
[7]
  mutagenic call: inactive; negative
[6]
  mutagenic call: inactive; negative

## N[C@@H](CCC(=O)N[C@@H](CSN=O)C(=O)NCC(=O)O)C(=O)O
[2]
  mutagenic call: active; positive
[8]
  mutagenic call: active; positive
[7]
  mutagenic call: active; positive

## O[C@H]1C=CC2=C(c3cccc4cccc2c34)[C@@H]1O
Test System: AMES SALMONELLA TYPHIMURIUM, Strain/Indicator: TM677, Metabolic Activation: NONE, Method: PREINCUBATION
  mutagenic call: active; positive
Test System: AMES SALMONELLA TYPHIMURIUM, Strain/Indicator: TM677, Metabolic Activation: RAT, LIVER, POSTMITOCHONDRIAL SUPERNATANT, AROCLOR 1254, Method: PREINCUBATION
  mutagenic call: active; positive

## N[C@H](CSSC[C@@H](N)C(=O)O)C(=O)O
Test System: AMES SALMONELLA TYPHIMURIUM, Strain/Indicator: TA98, Metabolic Activation: RAT LIVER S-9, CHLOROPHENE, Method: STANDARD PLATE (COMPOUND HEATED AT 250 DEGREES CELSIUS FOR 20 MIN)
  mutagenic call: active; positive

## Nc1cc(Cl)c([N+](=O)[O-])cc1O
Test System: AMES SALMONELLA TYPHIMURIUM, Strain/Indicator: TA97, Metabolic Activation: HAMSTER, LIVER, S-9, AROCLOR 1254 (10%), Method: PREINCUBATION
  mutagenic call: active; positive
Test System: AMES SALMONELLA TYPHIMURIUM, Strain/Indicator: TA97, Metabolic Activation: NONE, Method: PREINCUBATION
  mutagenic call: active; positive
Test System: AMES SALMONELLA TYPHIMURIUM, Strain/Indicator: TA97, Metabolic Activation: RAT, LIVER, S-9, AROCLOR 1254 (10%), Method: PREINCUBATION
  mutagenic call: active; positive
Test System: AMES SALMONELLA TYPHIMURIUM, Strain/Indicator: TA98, Metabolic Activation: HAMSTER, LIVER, S-9, AROCLOR 1254 (10%), Method: PREINCUBATION
  mutagenic call: active; positive
[1]
  mutagenic call: active; positive
Test System: AMES SALMONELLA TYPHIMURIUM, Strain/Indicator: TA98, Metabolic Activation: RAT, LIVER, S-9, AROCLOR 1254 (10%), Method: PREINCUBATION
  mutagenic call: active; positive
Test System: AMES SALMONELLA TYPHIMURIUM, Strain/Indicator: TA100, Metabolic Activation: HAMSTER, LIVER, S-9, AROCLOR 1254 (10%), Method: PREINCUBATION
  mutagenic call: active; positive
[2]
  mutagenic call: inactive; negative
Test System: AMES SALMONELLA TYPHIMURIUM, Strain/Indicator: TA100, Metabolic Activation: RAT, LIVER, S-9, AROCLOR 1254 (10%), Method: PREINCUBATION
  mutagenic call: inactive; negative
Test System: AMES SALMONELLA TYPHIMURIUM, Strain/Indicator: TA1535, Metabolic Activation: HAMSTER, LIVER, S-9, AROCLOR 1254 (10%), Method: PREINCUBATION
  mutagenic call: inactive; negative
[5]
  mutagenic call: inactive; negative
Test System: AMES SALMONELLA TYPHIMURIUM, Strain/Indicator: TA1535, Metabolic Activation: RAT, LIVER, S-9, AROCLOR 1254 (10%), Method: PREINCUBATION
  mutagenic call: inactive; negative

## CC(=O)ON(C(C)=O)c1ccccc1C
[9]
  mutagenic call: inactive; negative
Test System: AMES SALMONELLA TYPHIMURIUM, Strain/Indicator: TA98, Metabolic Activation: RAT, LIVER, S-9, AROCLOR 1254, Method: STANDARD PLATE
  mutagenic call: inactive; negative
[3]
  mutagenic call: inactive; negative
[4]
  mutagenic call: inactive; negative

## ClCc1ccc2c(c1)-c1cccc3cccc-2c13
[9]
  mutagenic call: active; positive
[3]
  mutagenic call: active; positive

## CC(C)(N=O)[N+](=O)[O-]
[1]
  mutagenic call: active; positive
Test System: AMES SALMONELLA TYPHIMURIUM, Strain/Indicator: TA98, Metabolic Activation: RAT, LIVER, S-9, AROCLOR, Method: PREINCUBATION
  mutagenic call: inactive; negative
[2]
  mutagenic call: inactive; negative
[8]
  mutagenic call: inactive; negative
[7]
  mutagenic call: inactive; negative
Test System: AMES SALMONELLA TYPHIMURIUM, Strain/Indicator: TA102, Metabolic Activation: RAT, LIVER, S-9, AROCLOR, Method: PREINCUBATION
  mutagenic call: inactive; negative
